Experiments:
[1] = biological target: T1, P70S6K (T412E mutant) (Homo sapiens, UniProt P23443, T412E); test: p70S6K Enzyme Assay; assay type: biochemical; settings: 24 μM ATP, 90 min at 25° C., Caliper mobility shift
T1 construct: purchased Millipore
Method: p70S6K inhibitor compounds were diluted and plated in 96 well plates. A reaction mixture including the following components were then added to the compound plate to initiate the enzyme reaction; P70S6K (3 nM, T412E mutant, Millipore) was mixed with 24 μM ATP in an assay buffer containing 100 mM Hepes (pH 7.5), 5 mM MgCl2, 1 mM DTT, 0.015% Brij and 1 μM of the substrate peptide FITC-AHA-AKRRRLSSLRA-OH (derived from the S6 ribosomal protein sequence, FITC=fluorescein isothiocyanate, AHA=6-aminohexanoic acid). The reaction was incubated for 90 min at 25° C., before the addition of 10 mM EDTA to stop the reaction. The proportion of substrate and product (phosphorylated) peptide was analysed on a Caliper Life Sciences Lab Chip 3000, using a pressure of −1.4 psi, and upstream and downstream voltages of −3000 and −700 respectively. Product peaks were resolved before substrate peaks on the resulting chromatograms.
To assess the inhibitory potential of the compounds, IC50-values were determined, as shown in Chemical Synthesis section above.

[2] = system: pS6 MDA-MB-468; test: Cellular Activity Assay (phospho-S6 in MDA-MB-468 cells); assay type: cell-based; settings: Homo sapiens, 2 hr compound incubation, percent pS6-positive cells
Method: MDA-MB-468 cells were grown in DMEM containing glutamine supplemented with 10% Fetal Bovine Serum (FBS) and 1× antibiotics. Cells were maintained by splitting 1:3 twice a week.
For the assay, cells were plated the evening before at a density of 4000 cells per well in black polyD lysine coated 384 well plates. Cells were incubated overnight (16 to 20 hours) in growth media. Compounds at an appropriate concentration were added to the wells and incubated for 2 hr. Controls included: i) no primary, ii) rabbit isotype, iii) propidium iodide (red) only and iv) anti-phospho-S6 antibody alone (green only). Cells were then fixed in 4% paraformaldehyde for 15-20 minutes at room temperature, then washed 3×80 ul with PBS.
50 ul 10% normal goat serum (NGS) with 0.2% triton X 100 in PBS were added and incubated for 30 to 60 minutes at room temperature. Anti-phospho-S6 antibody was diluted 1:800 2% with NGS in 0.2% TritonX-100 and 30 ul added to appropriate wells. The wells were incubated overnight at 4 degrees Celsius.
Then the wells were washed with 3×80 uL PBS. The secondary green fluorescence labeled antibody (Alexa Fluor® 488 F(ab′)2 fragment goat Anti-rabbit IgG (H+L)), was diluted 1:1500 in 2% NGS with 0.2% TritonX-100, and 30 ul were added to the appropriate wells which were then incubated in the dark at room temperature for 60 minutes. Then they were washed with 4×80 ul PBS. Propidium iodide (1.5 mM stock) was diluted 1:1000 in PBS, and 50 ul were added to the appropriate wells and incubated for 30 minutes at room temperature in the dark. Propidium iodide was not washed out. Plates were read on the Acumen Explorer.
Red and green cell populations were determined using controls. The number of green cells (pS6) and total number of cells (red) were then counted and the percentage of green cells was calculated. Percent positive cell data was plotted on a log scale against concentration of compounds and IC50 values were calculated from dose response curves.

[3] = biological target: T2, Akt1 (Homo sapiens, UniProt P31749); test: AKT/PKB Kinase Assay; assay type: biochemical; settings: His-AKT (Full Length), 160 uM ATP, 90 min at 25 C
T2 construct: 0.1 ng/ul His-AKT (Full Length), (Invitrogen, Part #P2999, Lot #641228C); His; purchased Invitrogen P2999
Method: In order to measure AKT inhibition in the Caliper Life Sciences LC3000, a TTP Mosquito liquid handling instrument was used to place 125 nl of the appropriate concentration of inhibitor in 100% DMSO (for a dose response curve calculation) into each well of a 384-well plate. To this reaction components were added to a final volume of 12.5 ul: • 0.1 ng/ul His-AKT (Full Length), (Invitrogen, Part #P2999, Lot #641228C) • 160 uM ATP (Fluke, 02055) • 1 mM DTT (Sigma, D0632) • 1 mM MgCl2 (Sigma, M1028) • 1 uM substrate peptide (sequence FITC-AHA-GRPRTSSFAEG-NH2), synthesized by Tufts Peptide Synthesis service. • 100 mM HEPES pH 7.5 (Calbiochem, 391338) • 0.015% Brij-35 (Sigma, B4184)
(§1) The reaction was incubated for 90 min at 25 C, and then stopped by the addition of 70 ul of Stop buffer (100 mM HEPES pH 7.5, 0.015% Brij-35, 10 mM EDTA (Sigma, E7889)).
The plate was read on a Caliper LC 3000 in an Off-Chip mobility shift assay format, using the following parameters for a 12-sipper chip: screening pressure −2.3 psi, upstream voltage −500, and downstream voltage −3000.
These conditions cause unphosphorylated substrate and phosphorylated product peptide to resolve as separate peaks allowing direct measurement of percentage of conversion of substrate to product. The percent conversion was plotted against concentration of inhibitor to produce a sigmoidal dose response curve, from which an IC50 was calculated.

[4] = biological target: T3, Aurora B (Homo sapiens, UniProt Q96GD4); test: Aurora B Kinase Assay; assay type: biochemical; settings: for IC50: GST-Aurora B (1-344), 10 uM ATP, 90 min at 25 C
T3 construct: GST-Aurora B (1-344 amino acids); GST (N); purchased Carna Biosciences 05-102
Method: To measure inhibitor activity of Aurora B inhibitors in the Caliper Life Sciences LC3000, a TTP Mosquito liquid handling instrument was used to place 0.25 ul of the appropriate concentration of inhibitor in 100% DMSO (for a dose response curve calculation) into each well of a 384-well plate. To this reaction components was added to a final volume of 25 ul: • 0.1 ng/ul GST-Aurora B (1-344 amino acids), (Carna Biosciences 05-102. N-terminal GST fusion with His tagged INCEP, accession number Q96GD4). • 10 uM ATP (Fluka, 02055) • 1 mM DTT (Sigma, D0632) • 1 mM MgCl2 (Sigma, M1028) • 1 uM substrate peptide (sequence FITC-LRRASLG-(CONH2), synthesized by Tufts Peptide Synthesis service. • 100 mM HEPES pH 7.5 (Calbiochem, 391338) • 0.015% Brij-35 (Sigma, B4184)
as §1
The plate was read on a Caliper LC 3000 in an Off-Chip mobility shift assay format, using the following parameters for a 12-sipper chip: screening pressure −1.8 psi, upstream voltage −2700, downstream voltage −1000. These conditions caused unphosphorylated substrate and phosphorylated product peptide to resolve as separate peaks allowing direct measurement of percentage of conversion of substrate to product. The percent conversion was plotted against concentration of inhibitor to produce a sigmoidal dose response curve, from which an IC50 was calculated using XLFit for Microsoft Excel.

T1 sequence (P23443 1-421 T412E limits assumed): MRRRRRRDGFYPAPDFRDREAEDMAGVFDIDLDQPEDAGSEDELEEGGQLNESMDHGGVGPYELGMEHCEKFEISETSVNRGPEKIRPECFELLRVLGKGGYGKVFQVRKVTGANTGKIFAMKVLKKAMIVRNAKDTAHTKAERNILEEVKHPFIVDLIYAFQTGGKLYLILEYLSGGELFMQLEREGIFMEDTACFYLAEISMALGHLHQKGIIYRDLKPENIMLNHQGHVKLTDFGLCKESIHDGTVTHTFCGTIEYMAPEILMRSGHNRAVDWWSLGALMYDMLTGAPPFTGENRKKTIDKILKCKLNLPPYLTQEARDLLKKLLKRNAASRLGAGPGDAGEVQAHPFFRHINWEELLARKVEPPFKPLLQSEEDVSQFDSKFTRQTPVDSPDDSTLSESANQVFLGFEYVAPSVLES
T2 sequence (P31749 whole entry): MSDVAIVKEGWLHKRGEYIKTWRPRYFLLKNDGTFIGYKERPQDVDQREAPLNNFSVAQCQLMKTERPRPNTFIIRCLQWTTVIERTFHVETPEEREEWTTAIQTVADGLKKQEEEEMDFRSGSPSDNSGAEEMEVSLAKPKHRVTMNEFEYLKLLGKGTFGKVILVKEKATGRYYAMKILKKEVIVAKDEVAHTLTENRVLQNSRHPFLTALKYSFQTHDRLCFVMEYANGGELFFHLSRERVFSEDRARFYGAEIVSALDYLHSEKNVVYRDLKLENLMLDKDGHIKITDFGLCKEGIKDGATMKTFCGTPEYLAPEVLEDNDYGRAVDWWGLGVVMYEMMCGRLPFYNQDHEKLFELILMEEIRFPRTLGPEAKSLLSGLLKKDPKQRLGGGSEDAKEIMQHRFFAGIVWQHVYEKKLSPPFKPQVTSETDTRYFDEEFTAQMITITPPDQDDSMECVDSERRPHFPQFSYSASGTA
T3 sequence (Q96GD4 whole entry, the tested form may be a part): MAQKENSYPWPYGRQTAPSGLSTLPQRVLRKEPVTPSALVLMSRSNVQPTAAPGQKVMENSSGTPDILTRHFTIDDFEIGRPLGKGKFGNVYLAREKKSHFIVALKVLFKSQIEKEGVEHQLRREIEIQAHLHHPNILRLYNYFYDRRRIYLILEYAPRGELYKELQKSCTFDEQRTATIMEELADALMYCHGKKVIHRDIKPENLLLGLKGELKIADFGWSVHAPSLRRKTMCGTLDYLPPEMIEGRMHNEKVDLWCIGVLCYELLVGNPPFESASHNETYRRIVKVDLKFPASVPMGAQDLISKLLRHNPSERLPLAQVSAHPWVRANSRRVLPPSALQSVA
T3 sequence (Q9NQS7 803-918 partner limits assumed): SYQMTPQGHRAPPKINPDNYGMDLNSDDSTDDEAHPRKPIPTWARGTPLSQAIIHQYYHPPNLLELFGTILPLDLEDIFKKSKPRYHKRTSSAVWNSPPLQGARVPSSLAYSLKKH

SMILES	IC50 [1] [µM]	IC50 [2] [µM]	IC50 [3] [µM]	IC50 [4] [µM]	Aurora B/p70S6K inhibitory ratio ([4]; ratio of Aurora B to p70S6K inhibition)	IC50 ([2]; head printed in uM) [µM]
NC(=O)c1cccc2c(N[C@H](CN3CCC3)c3cccc(F)c3)ncnc12 [Example 1, 4-[(S)-2-Azetidin-1-yl-1-(3-fluorophenyl)-ethylamino]-quinazoline-8-carboxylic acid amide]	0.0056	0.07	0.022	0.045	28	
NC(=O)c1cccc2c(N[C@H](CN3CCC3)c3ccc(F)cc3)ncnc12 [Example 3, 4-[(S)-2-Azetidin-1-yl-1-(4-fluorophenyl)-ethylamino]-quinazoline-8-carboxylic acid amide]	0.0078	0.103	0.023	0.041		
NC(=O)c1cccc2c(N[C@H](CN3CCC3)c3ccccc3)ncnc12 [Example 21, 4-[(S)-2-Azetidin-1-yl-1-phenyl-ethylamino]-quinazoline-8-carboxylic acid amide]	0.011	3.1				
NC(=O)c1cccc2c(N[C@H](CN3CC(F)(F)C3)c3ccc(Cl)cc3)ncnc12 [Example 32, 4-[(S)-1-(4-Chloro-phenyl)-2-(3,3-difluoro-azetidin-1-yl)-ethylamino]-quinazoline-8-carboxylic acid amide]	0.042	> 0.01		0.34		
NC(=O)c1cccc2c(N[C@H](CN3CC(O)C3)c3ccc(F)c(F)c3)ncnc12 [Example 33, 4-[(S)-1-(3,4-Difluoro-phenyl)-2-(3-hydroxy-azetidin-1-yl)-ethylamino]-quinazoline-8-carboxylic acid amide]	0.0046			0.21		
NC(=O)c1ccc([C@@H](CN2CCC2)Nc2ncnc3c(C(N)=O)cccc23)cc1 [Example 35, 4-[(S)-2-Azetidin-1-yl-1-(4-carbamoylphenyl)-ethylamino]-quinazoline-8-carboxylic acid amide]	0.0086	0.577				
CC(C)Oc1ccc([C@@H](CN2CCC2)Nc2ncnc3c(C(N)=O)cccc23)cc1 [Example 36, 4-[(S)-2-Azetidin-1-yl-1-(4-isopropoxyphenyl)-ethylamino]-quinazoline-8-carboxylic acid amide]	0.4					> 10
COc1cc([C@@H](CN2CCC2)Nc2ncnc3c(C(N)=O)cccc23)cc(F)c1F [Example 40, 4-[(S)-2-Azetidin-1-yl-1-(3,4-difluoro-5-methoxyphenyl)-ethylamino]-quinazoline-8-carboxylic acid amide]	0.13			> 0.001		> 10

Stronger by IC50 [1], values ahead:

IC50 [1] [µM]	IC50 [2] [µM]	IC50 [3] [µM]	IC50 [4] [µM]	Aurora B/p70S6K inhibitory ratio ([4]; ratio of Aurora B to p70S6K inhibition)	IC50 ([2]; head printed in uM) [µM]	SMILES
0.0024	0.324	0.072				NC(=O)c1cccc2c(N[C@H](CN3CC(F)C3)c3cccc(Cl)c3)ncnc12 [Example 22, 4-[(S)-2-(3-Fluoro-azetidin-1-yl)-1-(3-chlorophenyl)-ethylamino]-quinazoline-8-carboxylic acid amide]
0.0024	0.061		0.69			NC(=O)c1cccc2c(N[C@H](CN3CCC3)c3ccc(OC(F)(F)F)c(Cl)c3)ncnc12 [Example 28, 4-[(S)-2-Azetidin-1-yl-1-(3-chloro-4-trifluoromethoxy-phenyl)-ethylamino]-quinazoline-8-carboxylic acid amide]
0.0016	0.019	0.0077				NC(=O)c1cccc2c(N[C@H](CN3CCC3)c3ccc(Cl)c(F)c3)ncnc12 [Example 29, 4-[(S)-2-Azetidin-1-yl-1-(4-chloro-3-fluoro-phenyl)-ethylamino]-quinazoline-8-carboxylic acid amide]
0.0012	0.074	0.0041	0.056			NC(=O)c1cccc2c(N[C@H](CN3CCC3)c3ccc(F)c(F)c3)ncnc12 [Example 4, 4-[(S)-2-Azetidin-1-yl-1-(3,4-difluorophenyl)-ethylamino]-quinazoline-8-carboxylic acid amide]
0.0011	0.016	0.01	0.047			NC(=O)c1cccc2c(N[C@H](CN3CCC3)c3cccc(Cl)c3)ncnc12 [Example 2, 4-[(S)-2-Azetidin-1-yl-1-(3-chlorophenyl)-ethylamino]-quinazoline-8-carboxylic acid amide]
0.001	0.064		0.054			NC(=O)c1cc(F)cc2c(N[C@H](CN3CCC3)c3ccc(Cl)c(F)c3)ncnc12 [Example 51, 4-[(S)-2-Azetidin-1-yl-1-(4-chloro-3-fluoro-phenyl)-ethylamino]-6-fluoro-quinazoline-8-carboxylic acid amide]
0.0009	0.011	0.0014	0.1			NC(=O)c1cccc2c(N[C@H](CN3CCC3)c3ccc(Cl)c(C(F)(F)F)c3)ncnc12 [Example 5, 4-[(S)-2-Azetidin-1-yl-1-(4-chloro-3-trifluoromethylphenyl)-ethylamino]-quinazoline-8-carboxylic acid amide]
0.0008	0.063					CC(C)c1ccc([C@@H](CN2CCC2)Nc2ncnc3c(C(N)=O)cccc23)cc1 [Example 34, 4-[(S)-2-Azetidin-1-yl-1-(4-isopropylphenyl)-ethylamino]-quinazoline-8-carboxylic acid amide]
